In brackets after ≈: the same amount, converted by molar mass. Read-outs that look alike come from different tables or passages of the source. One block for each compound: values may come before it.
Legend:
Type in all cases: physicochemical
[1] = Solubility of the active ingredient in comparable solvents (polar to nonpolar)
Procedure: These values are expressed in mg/ml and determined at a temperature of 25°C at 1 atm. In a preferred embodiment, also the solubility is determined in water-based systems having different pH's, or having different temperatures; and in water-based systems wherein co-solvents are present; and in stomach or intestinal media. Solubility information in a broad range of solvents (including oils, dichloromethane, methanol), is useful because the knowledge of in which type of solvents the active ingredient dissolves well, helps in designing a NADES with similar properties.

[2] = pKa of the active ingredient
From the text: Further, the analysis also at least involves determination of acidity/basicity of the compound by determining the pKa value by standard methods. In the case of previously analyzed compounds such information typically available in published literature.

[3] = Stability of the active ingredient (pH, storage)
Procedure: Suitable secondary criteria are for instance the absolute oral bioavailability, typically denoted as a percentage of the maximum bioavailability of 100% which is defined as the bioavailability of the intravenous formulation as measured in a living being such as those used in animal trials or in human trials. Bioavailability is measured as the AUC (Area Under Curve) of the plasma concentration of a drug collected over a certain period of time, which depends on the half-life of the drug. Another suitable criterion is the stability data (such as temperature sensibility and pH range of stability expressed in time units). This is expressed as a duration in days/months/years where the compound has not undergone unacceptable levels of degradation (<10%) in specific conditions e.g. low pH.

[4] = Solubility of the active ingredient in NADES; details: thermodynamic from solid
Procedure: Subsequently, selected constituents are weighed out in the appropriate molar ratios and corresponding masses and are added to a suitable receptacle, such as a small bottle or other small vessel. In the receptacle generally a stirring element is added, such as a stirring flea. If two or more solid constituents are present, these are generally heated, for instance to about 70°C. When at least one liquid constituent is present, it is generally not needed to heat the system to temperatures higher than about 50°C. The constituents are stirred. When two (or more) solid constituents are mixed, this often leads to high or very high viscosities, in which case addition of some water or other liquid excipients such as propylene glycol is recommended. The stirring is continued until a clear liquid is formed.
After a clear liquid is obtained, it is preferred to let it cool and sit for 24 hours or so, as a check for stability. If a NADES is not stable at RT (room temperature; in other words, if the eutectic point is higher than RT at the selected molar ratio), one can try adding additional constituents or trying a different molar ratio.
Once cooled, the pH of the system is measured. An acidic NADES will in general be good at solubilizing a basic active ingredient due to protonation and vice versa. The stability can also be influenced by the pH, where usually a range of pH values is given that results in the best stability.
Usually it is apparent within an hour whether or not a solvent is going to achieve any worthwhile solubility value. If the solute sticks to the side of the receptacle and/or floats on top, investigation into this solvent can be terminated. If the solute makes for a cloudy solution, further dilution may yield success.

[5] = Particle size of precipitate after about 100 fold dilution of the NADES:PPI formulation with intestinal medium (FaSSIF), optical microscopy
Procedure: All PPI's that are soluble at approximately a PPI to active ingredient ratio of 1 to 5 are selected for the next stage of testing. A small sample of for example 100 µl is taken from the NADES:PPI mixture and the appropriate mass of active ingredient is solubilized in the system as above. Each NADES: PPI: active ingredient sample is diluted approximately 100 fold with intestinal medium solutions e.g. Fast State Simulated Intestinal Fluid (FaSSIF). The system with the smallest particle size over a 2 hour period is determined to be the best performing formulation. The particle size is determined using visual inspection and optical microscopy.
The precipitant molecules should in this light have a size less than approximately 10/µm, preferably less than 5µm and ideally less than about 1µm. These sizes are measured at 10 minute intervals over a 2 hours period to analyse the crystal growth. The crystal sizes are monitored using an optical microscope in initial samples; yet are more accurately measured after 2 hours using a Malvern Mastersizer 3000 or similar particle sizing equipment.
Below are microscope images of formulations of flufenamic acid diluted with intestinal medium. The dilution is approximately similar to 1ml of formulation being released into the intestine. The goal is to have sufficiently small particle sizes for a sufficiently long period of time to promote drug absorption. Figures 1, 2 and 3 show progressions in particle size of flufenamic acid in formulations designed using the present invention.
The following example is of a poorly water-soluble molecule, Paclitaxel, and the process of designing a system using the aforementioned invention. […] The second objective was to select one or more PPI's capable of controlling the size of precipitant upon an approximately 100 fold dilution with intestinal medium. The target dose of the formulation was 30mg/ml. The variation in particle size between formulations was analysed with visual inspection. The best performing formulations were compared with a size calibrated optical microscope and camera.

[6] = NADES, organic solvent or mixture, Choline Chloride: Propylene Glycol (1:3), pH 6.71

- solubility ([1]; caster oil, 25 °C, oil or lipid, read-out: approximate solubility in caster oil): 15 to 20 mg/mL (≈ 17.6 to 23.4 mM)
- solubility in ethanol ([1]; ethanol): 1.5 mg/mL (≈ 1.76 mM)
- solubility ([1]; olive oil, 25 °C, oil or lipid, read-out: approximate solubility in olive oil): 15 to 20 mg/mL (≈ 17.6 to 23.4 mM)
- pKa [2]: 11.9
- pKa ([2]; read-out: pKa): 11.9
- pH range in which most stable [3]: 3-6 pH
- Stability at basic pH ([3]; basic pH (8)): degrades quickly
- solubility [4, 6]: 30 mg/mL (≈ 35.1 mM)
- solubility ([4]; aqueous with cosolvent or surfactant or cyclodextrin, Malic acid: Beta alanine: Water (1:1:2), pH 3.43, acidic NADES): < 1 mg/mL
- solubility ([4]; aqueous with cosolvent or surfactant or cyclodextrin, Sucrose: Glucose: Fructose: Water (1:1:1:8), pH 3.36, polar NADES): < 1 mg/mL
- solubility ([4]; pH 9.8, aqueous with cosolvent or surfactant or cyclodextrin, Choline Chloride: Urea: Water (1:1:2), pH 9.80, polar NADES): < 1 mg/mL
- Particle size result (microscope photograph, Fig. 4) ([5]; 30 mg/ml in choline chloride: propylene glycol (1:3) with 30 mg/ml hypromellose acetate succinate solubilized in FaSSIF, 40x magnification): good result
- Particle size, majority of observable particles (Fig. 4) ([5]; formulation diluted with intestinal medium, particles less than 1 µm not detected by optical microscopy): less than 10 µm
Compound: CC(=O)O[C@H]1C(=O)[C@@]2(C)[C@H]([C@H](OC(=O)c3ccccc3)[C@]3(O)C[C@H](OC(=O)[C@H](O)[C@@H](NC(=O)c4ccccc4)c4ccccc4)C(C)=C1C3(C)C)[C@]1(OC(C)=O)CO[C@@H]1C[C@@H]2O [Paclitaxel]

- solubility in cyclohexane ([1]; cyclohexane): very low
- solubility ([1]; dimethyl sulfoxide, 25 °C, organic solvent or mixture, read-out: solubility in dimethyl sulfoxide): > 50 mg/mL
- solubility ([1]; ethanol, 25 °C, organic solvent or mixture, read-out: solubility in ethanol): > 50 mg/mL
- solubility in hexane ([1]; hexane): very low
- solubility in mineral oil (paraffin oil) ([1]; mineral oil (paraffin oil)): very low
- Water solubility ([1]; water, 25°C and 1atm): very low
- solubility ([1]; water, 25°C and 1atm, read-out: Water solubility): 0.009 mg/mL (≈ 0.032 mM)
- pKa ([2]; read-out: pKa): 3.65
- Stability ([3]; both acidic and basic aqueous solutions, period of 3 months at RT): stable
- solubility [4, 6]: 28 mg/mL (≈ 99.6 mM)
- solubility ([4]; aqueous with cosolvent or surfactant or cyclodextrin, Choline chloride: Lactic acid: water (2:1:2), pH 2.19, polar NADES): < 1 mg/mL
- solubility ([4]; organic solvent or mixture, Acetamide: Propylene Glycol (1:2), pH 6.47, basic NADES): 93.1 mg/mL (≈ 331 mM)
- solubility ([4]; organic solvent or mixture, Acetamide: Propylene Glycol (1:3), pH 6.89, basic NADES): 50 mg/mL (≈ 178 mM)
- solubility ([4]; organic solvent or mixture, Choline Chloride: Ethylene Glycol (1:3), pH 6.08, neutral NADES): 28 mg/mL (≈ 99.6 mM)
- solubility ([4]; organic solvent or mixture, Choline chloride: glucose: butylene glycol (2:1:1), polar NADES): < 1 mg/mL
- solubility ([4]; organic solvent or mixture, Sorbitol: Urea (1:1), pH 8.3, polar NADES): < 1 mg/mL
- Particle size result (microscope photograph, Fig. 2) ([5]; 28 mg/ml in choline chloride: propylene glycol (1:3) with 14 mg/ml Polyethylene Glycol-4000 solubilized in FaSSIF, 40x magnification): poor result
- Particle size result (microscope photograph, Fig. 3) ([5]; 28 mg/ml in choline chloride: propylene glycol (1:3) with 56 mg/ml Polyethylene Glycol-4000 solubilized in FaSSIF, 40x magnification): good result
Compound: O=C(O)c1ccccc1Nc1cccc(C(F)(F)F)c1 [Flufenamic acid]

Reference: patent EP3485874A1, “METHOD OF PREPARING A NATURAL DEEP EUTECTIC SOLVENT (NADES)-ACTIVE INGREDIENT SYSTEM; A NADES-, AND PREFERABLY A POLYMERIC PRECIPITATION INHIBITOR CONTAINING NADES-, BASED DRUG FORMULATION TECHNOLOGY AND DEVELOPMENT METHOD” (SeraNovo B.V., priority 2017, dated 2019)
